In ChEMBL document CHEMBL3991601, “The target landscape of clinical kinase drugs” (Science, 2017):
The source made the active and inactive calls. Rule as the data show it, for most assays here: actives have a measured Kd and inactives only a lower limit.

target: Atypical kinase COQ8A, mitochondrial (Homo sapiens, UniProt Q8NI60)
Also: in the data inactive means no Kd found up to 30 µM.

Atypical kinase COQ8A, mitochondrial, sequence (Q8NI60 whole entry): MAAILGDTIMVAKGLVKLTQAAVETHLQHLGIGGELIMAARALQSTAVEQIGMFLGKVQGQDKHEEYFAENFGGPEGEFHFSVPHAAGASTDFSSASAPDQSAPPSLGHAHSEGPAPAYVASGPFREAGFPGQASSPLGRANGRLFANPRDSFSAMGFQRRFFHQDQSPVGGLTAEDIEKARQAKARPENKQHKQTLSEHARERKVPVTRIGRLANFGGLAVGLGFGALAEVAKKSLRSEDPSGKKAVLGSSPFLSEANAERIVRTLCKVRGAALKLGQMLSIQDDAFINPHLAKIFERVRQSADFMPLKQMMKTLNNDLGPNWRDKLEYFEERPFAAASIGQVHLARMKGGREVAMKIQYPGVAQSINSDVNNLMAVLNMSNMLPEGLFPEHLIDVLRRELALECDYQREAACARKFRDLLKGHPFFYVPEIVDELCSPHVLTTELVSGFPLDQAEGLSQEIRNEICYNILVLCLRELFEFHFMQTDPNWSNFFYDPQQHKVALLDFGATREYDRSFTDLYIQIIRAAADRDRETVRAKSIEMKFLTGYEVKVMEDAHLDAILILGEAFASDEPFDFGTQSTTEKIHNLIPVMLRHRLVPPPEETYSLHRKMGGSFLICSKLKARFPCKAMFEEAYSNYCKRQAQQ

Row | Compound | Kd
1 | CNC(=O)c1cc(Oc2ccc(NC(=O)Nc3ccc(Cl)c(C(F)(F)F)c3)c(F)c2)ccn1 [REGORAFENIB] | > 30 µM (inactive)
2 | CN(C)C(=O)c1cc2cnc(Nc3ccc(N4CCNCC4)cn3)nc2n1C1CCCC1 [RIBOCICLIB] | > 30 µM (inactive)
3 | COc1cc(OC)c(/C=C/S(=O)(=O)Cc2ccc(OC)c(NCC(=O)O)c2)c(OC)c1 [RIGOSERTIB] | > 30 µM (inactive)

target: Deoxycytidine kinase (Homo sapiens, UniProt P27707)
Sequence (P27707 whole entry): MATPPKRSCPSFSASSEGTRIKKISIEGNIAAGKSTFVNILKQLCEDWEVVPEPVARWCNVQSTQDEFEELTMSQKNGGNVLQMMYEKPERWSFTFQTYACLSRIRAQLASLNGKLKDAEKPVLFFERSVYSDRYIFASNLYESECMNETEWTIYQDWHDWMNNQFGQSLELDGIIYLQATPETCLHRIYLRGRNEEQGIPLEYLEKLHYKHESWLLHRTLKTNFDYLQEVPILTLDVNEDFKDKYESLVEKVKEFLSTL

Row | Compound | Kd
4 | CNC(=O)c1cc(Oc2ccc(NC(=O)Nc3ccc(Cl)c(C(F)(F)F)c3)c(F)c2)ccn1 [REGORAFENIB] | > 30 µM (inactive)
5 | CN(C)C(=O)c1cc2cnc(Nc3ccc(N4CCNCC4)cn3)nc2n1C1CCCC1 [RIBOCICLIB] | > 30 µM (inactive)
6 | COc1cc(OC)c(/C=C/S(=O)(=O)Cc2ccc(OC)c(NCC(=O)O)c2)c(OC)c1 [RIGOSERTIB] | > 30 µM (inactive)

target: ATP-dependent RNA helicase DDX3X (Homo sapiens, UniProt O00571)

Row | Compound | Kd
7 | CNC(=O)c1cc(Oc2ccc(NC(=O)Nc3ccc(Cl)c(C(F)(F)F)c3)c(F)c2)ccn1 [REGORAFENIB] | > 30 µM (inactive)
8 | CN(C)C(=O)c1cc2cnc(Nc3ccc(N4CCNCC4)cn3)nc2n1C1CCCC1 [RIBOCICLIB] | > 30 µM (inactive)
9 | COc1cc(OC)c(/C=C/S(=O)(=O)Cc2ccc(OC)c(NCC(=O)O)c2)c(OC)c1 [RIGOSERTIB] | > 30 µM (inactive)

target: Tyrosine-protein kinase Fer (Homo sapiens, UniProt P16591)

Row | Compound | Kd
10 | CNC(=O)c1cc(Oc2ccc(NC(=O)Nc3ccc(Cl)c(C(F)(F)F)c3)c(F)c2)ccn1 [REGORAFENIB] | > 30 µM (inactive)
11 | CN(C)C(=O)c1cc2cnc(Nc3ccc(N4CCNCC4)cn3)nc2n1C1CCCC1 [RIBOCICLIB] | > 30 µM (inactive)
12 | COc1cc(OC)c(/C=C/S(=O)(=O)Cc2ccc(OC)c(NCC(=O)O)c2)c(OC)c1 [RIGOSERTIB] | > 30 µM (inactive)

target: Tyrosine-protein kinase Lyn (Homo sapiens, UniProt P07948)
Sequence (P07948 whole entry): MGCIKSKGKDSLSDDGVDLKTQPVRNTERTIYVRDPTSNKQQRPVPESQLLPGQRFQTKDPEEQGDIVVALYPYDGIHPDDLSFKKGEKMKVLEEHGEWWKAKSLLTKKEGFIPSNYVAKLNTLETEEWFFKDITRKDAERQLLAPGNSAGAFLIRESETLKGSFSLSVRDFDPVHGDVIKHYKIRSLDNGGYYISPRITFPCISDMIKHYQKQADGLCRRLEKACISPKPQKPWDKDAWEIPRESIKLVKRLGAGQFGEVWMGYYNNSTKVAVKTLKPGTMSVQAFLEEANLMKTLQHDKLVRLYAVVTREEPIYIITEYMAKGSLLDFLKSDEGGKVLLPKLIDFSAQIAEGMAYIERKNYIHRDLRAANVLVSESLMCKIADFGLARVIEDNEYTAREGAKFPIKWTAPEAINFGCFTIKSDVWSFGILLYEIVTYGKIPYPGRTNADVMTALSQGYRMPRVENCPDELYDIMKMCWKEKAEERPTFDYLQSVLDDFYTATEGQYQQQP

Row | Compound | Kd
13 | CNC(=O)c1cc(Oc2ccc(NC(=O)Nc3ccc(Cl)c(C(F)(F)F)c3)c(F)c2)ccn1 [REGORAFENIB] | > 30 µM (inactive)
14 | CN(C)C(=O)c1cc2cnc(Nc3ccc(N4CCNCC4)cn3)nc2n1C1CCCC1 [RIBOCICLIB] | > 30 µM (inactive)
15 | COc1cc(OC)c(/C=C/S(=O)(=O)Cc2ccc(OC)c(NCC(=O)O)c2)c(OC)c1 [RIGOSERTIB] | > 30 µM (inactive)

target: Mitogen-activated protein kinase kinase kinase 1 (Homo sapiens, UniProt Q13233)
Sequence (Q13233 whole entry): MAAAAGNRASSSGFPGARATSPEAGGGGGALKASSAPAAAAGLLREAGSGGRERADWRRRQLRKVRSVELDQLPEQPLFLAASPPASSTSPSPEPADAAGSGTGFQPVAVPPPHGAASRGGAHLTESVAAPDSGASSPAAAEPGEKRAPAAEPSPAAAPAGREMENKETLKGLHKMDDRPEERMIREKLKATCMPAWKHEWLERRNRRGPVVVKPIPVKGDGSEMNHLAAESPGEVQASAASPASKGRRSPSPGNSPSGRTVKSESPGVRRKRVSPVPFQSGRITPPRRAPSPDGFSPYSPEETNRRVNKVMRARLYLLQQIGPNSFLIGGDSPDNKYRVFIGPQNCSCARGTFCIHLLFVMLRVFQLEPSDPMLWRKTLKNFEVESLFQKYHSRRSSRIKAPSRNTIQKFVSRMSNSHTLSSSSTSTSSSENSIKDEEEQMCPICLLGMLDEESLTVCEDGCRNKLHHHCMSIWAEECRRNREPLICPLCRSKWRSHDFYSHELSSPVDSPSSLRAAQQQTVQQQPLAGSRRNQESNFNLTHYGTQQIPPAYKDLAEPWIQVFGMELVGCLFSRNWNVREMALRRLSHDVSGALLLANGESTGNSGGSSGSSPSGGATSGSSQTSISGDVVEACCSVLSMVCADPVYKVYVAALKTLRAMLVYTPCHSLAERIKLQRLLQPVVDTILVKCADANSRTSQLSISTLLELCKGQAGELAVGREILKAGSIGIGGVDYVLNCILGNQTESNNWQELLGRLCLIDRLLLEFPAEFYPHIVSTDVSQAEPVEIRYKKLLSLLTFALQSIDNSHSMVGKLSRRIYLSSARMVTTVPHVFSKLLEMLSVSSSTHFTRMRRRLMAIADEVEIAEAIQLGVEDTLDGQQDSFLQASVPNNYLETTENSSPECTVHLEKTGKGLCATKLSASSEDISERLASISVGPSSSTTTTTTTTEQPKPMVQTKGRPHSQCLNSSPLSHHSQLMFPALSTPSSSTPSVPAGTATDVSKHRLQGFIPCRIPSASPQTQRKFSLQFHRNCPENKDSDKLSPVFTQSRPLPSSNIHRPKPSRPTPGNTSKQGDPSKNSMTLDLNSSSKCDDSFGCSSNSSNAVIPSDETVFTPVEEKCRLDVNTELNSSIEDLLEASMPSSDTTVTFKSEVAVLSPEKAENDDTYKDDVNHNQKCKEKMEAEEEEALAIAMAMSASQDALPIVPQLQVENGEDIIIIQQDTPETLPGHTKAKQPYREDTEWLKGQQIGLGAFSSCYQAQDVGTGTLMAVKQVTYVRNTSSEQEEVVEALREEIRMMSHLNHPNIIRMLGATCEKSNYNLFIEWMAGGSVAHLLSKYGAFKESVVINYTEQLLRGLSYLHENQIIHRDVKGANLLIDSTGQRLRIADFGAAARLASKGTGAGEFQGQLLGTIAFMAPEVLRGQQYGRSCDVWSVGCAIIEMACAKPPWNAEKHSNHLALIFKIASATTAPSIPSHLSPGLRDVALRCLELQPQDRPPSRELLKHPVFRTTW

Row | Compound | Kd
16 | CNC(=O)c1cc(Oc2ccc(NC(=O)Nc3ccc(Cl)c(C(F)(F)F)c3)c(F)c2)ccn1 [REGORAFENIB] | 0.465 µM (active)
17 | CN(C)C(=O)c1cc2cnc(Nc3ccc(N4CCNCC4)cn3)nc2n1C1CCCC1 [RIBOCICLIB] | 12.5 µM (active)
18 | COc1cc(OC)c(/C=C/S(=O)(=O)Cc2ccc(OC)c(NCC(=O)O)c2)c(OC)c1 [RIGOSERTIB] | > 30 µM (inactive)

target: T1, Mitogen-activated protein kinase kinase kinase 2 (Homo sapiens, UniProt Q9Y2U5)
T1 sequence (Q9Y2U5 whole entry): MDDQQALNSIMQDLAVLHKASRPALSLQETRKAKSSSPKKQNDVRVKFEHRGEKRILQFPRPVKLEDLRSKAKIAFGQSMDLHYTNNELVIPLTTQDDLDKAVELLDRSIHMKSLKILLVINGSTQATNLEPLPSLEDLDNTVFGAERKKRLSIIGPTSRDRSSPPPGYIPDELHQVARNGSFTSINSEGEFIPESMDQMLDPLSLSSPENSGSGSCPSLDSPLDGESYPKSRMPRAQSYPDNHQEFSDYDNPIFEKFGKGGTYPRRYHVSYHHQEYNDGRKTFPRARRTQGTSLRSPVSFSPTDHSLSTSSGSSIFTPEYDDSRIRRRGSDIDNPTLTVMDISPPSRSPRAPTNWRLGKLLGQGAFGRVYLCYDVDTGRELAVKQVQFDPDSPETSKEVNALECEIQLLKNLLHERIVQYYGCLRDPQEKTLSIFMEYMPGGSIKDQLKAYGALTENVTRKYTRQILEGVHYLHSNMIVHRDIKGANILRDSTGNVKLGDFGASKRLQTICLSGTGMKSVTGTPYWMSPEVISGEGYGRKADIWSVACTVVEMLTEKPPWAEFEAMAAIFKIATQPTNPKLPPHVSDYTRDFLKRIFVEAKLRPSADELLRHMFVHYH

Row | Compound | Kd
19 | CNC(=O)c1cc(Oc2ccc(NC(=O)Nc3ccc(Cl)c(C(F)(F)F)c3)c(F)c2)ccn1 [REGORAFENIB] | > 30 µM (inactive)
20 | CN(C)C(=O)c1cc2cnc(Nc3ccc(N4CCNCC4)cn3)nc2n1C1CCCC1 [RIBOCICLIB] | > 30 µM (inactive)
21 | COc1cc(OC)c(/C=C/S(=O)(=O)Cc2ccc(OC)c(NCC(=O)O)c2)c(OC)c1 [RIGOSERTIB] | > 30 µM (inactive)

target: MAP kinase-activated protein kinase 2 (Homo sapiens, UniProt P49137)

Row | Compound | Kd
22 | CNC(=O)c1cc(Oc2ccc(NC(=O)Nc3ccc(Cl)c(C(F)(F)F)c3)c(F)c2)ccn1 [REGORAFENIB] | 0.682 µM (active)
23 | CN(C)C(=O)c1cc2cnc(Nc3ccc(N4CCNCC4)cn3)nc2n1C1CCCC1 [RIBOCICLIB] | > 30 µM (inactive)
24 | COc1cc(OC)c(/C=C/S(=O)(=O)Cc2ccc(OC)c(NCC(=O)O)c2)c(OC)c1 [RIGOSERTIB] | > 30 µM (inactive)

target: T2, ATP-dependent 6-phosphofructokinase, platelet type (Homo sapiens, UniProt Q01813)
T2 sequence (Q01813 whole entry): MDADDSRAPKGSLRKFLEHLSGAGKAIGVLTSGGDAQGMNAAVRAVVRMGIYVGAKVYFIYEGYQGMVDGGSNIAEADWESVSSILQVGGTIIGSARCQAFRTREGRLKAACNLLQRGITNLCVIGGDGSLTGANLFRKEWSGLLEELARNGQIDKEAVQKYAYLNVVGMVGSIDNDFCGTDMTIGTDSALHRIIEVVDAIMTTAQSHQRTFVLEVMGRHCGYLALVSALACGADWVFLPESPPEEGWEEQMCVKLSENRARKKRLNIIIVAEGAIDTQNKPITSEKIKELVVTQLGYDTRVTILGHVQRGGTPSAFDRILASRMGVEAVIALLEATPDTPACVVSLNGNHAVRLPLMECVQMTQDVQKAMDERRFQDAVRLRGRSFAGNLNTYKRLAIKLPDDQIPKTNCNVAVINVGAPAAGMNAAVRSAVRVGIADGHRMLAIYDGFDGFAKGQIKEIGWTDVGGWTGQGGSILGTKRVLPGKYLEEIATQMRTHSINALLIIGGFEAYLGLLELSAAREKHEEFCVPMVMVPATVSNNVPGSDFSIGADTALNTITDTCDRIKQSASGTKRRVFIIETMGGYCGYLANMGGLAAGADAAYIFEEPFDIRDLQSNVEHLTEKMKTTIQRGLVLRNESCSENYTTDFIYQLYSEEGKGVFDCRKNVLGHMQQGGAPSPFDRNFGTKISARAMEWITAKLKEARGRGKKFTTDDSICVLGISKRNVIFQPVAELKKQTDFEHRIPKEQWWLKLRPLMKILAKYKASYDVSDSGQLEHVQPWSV

Row | Compound | Kd
25 | CNC(=O)c1cc(Oc2ccc(NC(=O)Nc3ccc(Cl)c(C(F)(F)F)c3)c(F)c2)ccn1 [REGORAFENIB] | > 30 µM (inactive)
26 | CN(C)C(=O)c1cc2cnc(Nc3ccc(N4CCNCC4)cn3)nc2n1C1CCCC1 [RIBOCICLIB] | > 30 µM (inactive)
27 | COc1cc(OC)c(/C=C/S(=O)(=O)Cc2ccc(OC)c(NCC(=O)O)c2)c(OC)c1 [RIGOSERTIB] | > 30 µM (inactive)

target: Ribosomal protein S6 kinase alpha-4 (Homo sapiens, UniProt O75676)
Sequence (O75676 whole entry): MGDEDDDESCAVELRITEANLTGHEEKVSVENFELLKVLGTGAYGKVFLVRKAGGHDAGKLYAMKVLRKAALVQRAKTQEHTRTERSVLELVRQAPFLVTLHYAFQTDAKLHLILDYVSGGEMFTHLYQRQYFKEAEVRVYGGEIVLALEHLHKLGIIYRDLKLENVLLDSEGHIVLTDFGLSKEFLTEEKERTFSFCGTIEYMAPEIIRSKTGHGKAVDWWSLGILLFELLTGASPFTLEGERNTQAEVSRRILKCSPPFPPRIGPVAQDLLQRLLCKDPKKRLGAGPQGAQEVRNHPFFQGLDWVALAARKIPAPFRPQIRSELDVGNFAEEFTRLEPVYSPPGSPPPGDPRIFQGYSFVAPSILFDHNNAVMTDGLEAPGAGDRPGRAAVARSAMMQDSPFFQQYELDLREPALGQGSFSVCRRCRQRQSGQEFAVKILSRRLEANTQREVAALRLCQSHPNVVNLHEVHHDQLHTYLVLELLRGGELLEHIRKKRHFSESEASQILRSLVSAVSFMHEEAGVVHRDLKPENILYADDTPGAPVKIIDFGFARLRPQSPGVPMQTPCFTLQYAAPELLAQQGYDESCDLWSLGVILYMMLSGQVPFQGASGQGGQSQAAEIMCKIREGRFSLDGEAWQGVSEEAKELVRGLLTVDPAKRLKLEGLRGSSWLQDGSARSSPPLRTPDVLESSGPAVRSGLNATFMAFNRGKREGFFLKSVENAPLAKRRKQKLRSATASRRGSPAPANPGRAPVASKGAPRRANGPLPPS

Row | Compound | Kd
28 | CNC(=O)c1cc(Oc2ccc(NC(=O)Nc3ccc(Cl)c(C(F)(F)F)c3)c(F)c2)ccn1 [REGORAFENIB] | > 30 µM (inactive)
29 | CN(C)C(=O)c1cc2cnc(Nc3ccc(N4CCNCC4)cn3)nc2n1C1CCCC1 [RIBOCICLIB] | > 30 µM (inactive)
30 | COc1cc(OC)c(/C=C/S(=O)(=O)Cc2ccc(OC)c(NCC(=O)O)c2)c(OC)c1 [RIGOSERTIB] | > 30 µM (inactive)

target: STE20-like serine/threonine-protein kinase (Homo sapiens, UniProt Q9H2G2)
Sequence (Q9H2G2 whole entry): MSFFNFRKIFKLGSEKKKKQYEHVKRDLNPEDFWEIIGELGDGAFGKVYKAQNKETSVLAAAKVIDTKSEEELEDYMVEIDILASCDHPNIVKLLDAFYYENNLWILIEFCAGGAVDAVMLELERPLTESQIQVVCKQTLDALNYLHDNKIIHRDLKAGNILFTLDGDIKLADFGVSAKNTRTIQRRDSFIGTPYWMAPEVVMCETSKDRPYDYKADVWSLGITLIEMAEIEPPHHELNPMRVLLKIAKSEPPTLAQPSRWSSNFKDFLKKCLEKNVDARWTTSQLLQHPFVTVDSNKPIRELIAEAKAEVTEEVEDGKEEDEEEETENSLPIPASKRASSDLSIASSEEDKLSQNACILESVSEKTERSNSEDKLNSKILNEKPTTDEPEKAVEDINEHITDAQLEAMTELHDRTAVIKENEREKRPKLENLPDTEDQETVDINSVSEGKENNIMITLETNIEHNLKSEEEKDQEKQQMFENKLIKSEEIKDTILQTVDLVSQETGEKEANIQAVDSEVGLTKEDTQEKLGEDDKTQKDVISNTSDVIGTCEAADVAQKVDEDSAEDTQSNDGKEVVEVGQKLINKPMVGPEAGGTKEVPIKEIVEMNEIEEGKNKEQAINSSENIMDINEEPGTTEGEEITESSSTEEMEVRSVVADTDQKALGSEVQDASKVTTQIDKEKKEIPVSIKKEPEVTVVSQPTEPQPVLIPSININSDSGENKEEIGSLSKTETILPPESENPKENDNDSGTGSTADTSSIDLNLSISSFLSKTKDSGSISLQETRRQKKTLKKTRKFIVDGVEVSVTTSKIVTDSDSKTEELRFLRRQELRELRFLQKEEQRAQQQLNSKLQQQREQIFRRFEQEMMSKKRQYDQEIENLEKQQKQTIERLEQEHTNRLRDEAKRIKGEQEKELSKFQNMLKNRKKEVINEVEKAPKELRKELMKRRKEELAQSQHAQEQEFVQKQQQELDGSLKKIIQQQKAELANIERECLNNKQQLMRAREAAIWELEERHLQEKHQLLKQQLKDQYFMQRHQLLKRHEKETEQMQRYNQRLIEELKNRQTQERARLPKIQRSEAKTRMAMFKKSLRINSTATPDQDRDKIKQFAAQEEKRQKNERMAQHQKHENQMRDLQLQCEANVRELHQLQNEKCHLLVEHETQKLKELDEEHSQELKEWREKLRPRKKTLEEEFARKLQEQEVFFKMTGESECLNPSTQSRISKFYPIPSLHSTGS

Row | Compound | Kd
31 | CNC(=O)c1cc(Oc2ccc(NC(=O)Nc3ccc(Cl)c(C(F)(F)F)c3)c(F)c2)ccn1 [REGORAFENIB] | > 30 µM (inactive)
32 | CN(C)C(=O)c1cc2cnc(Nc3ccc(N4CCNCC4)cn3)nc2n1C1CCCC1 [RIBOCICLIB] | > 30 µM (inactive)
33 | COc1cc(OC)c(/C=C/S(=O)(=O)Cc2ccc(OC)c(NCC(=O)O)c2)c(OC)c1 [RIGOSERTIB] | > 30 µM (inactive)

target: T3, Serine/threonine-protein kinase TAO1 (Homo sapiens, UniProt Q7L7X3)
T3 sequence (Q7L7X3 whole entry): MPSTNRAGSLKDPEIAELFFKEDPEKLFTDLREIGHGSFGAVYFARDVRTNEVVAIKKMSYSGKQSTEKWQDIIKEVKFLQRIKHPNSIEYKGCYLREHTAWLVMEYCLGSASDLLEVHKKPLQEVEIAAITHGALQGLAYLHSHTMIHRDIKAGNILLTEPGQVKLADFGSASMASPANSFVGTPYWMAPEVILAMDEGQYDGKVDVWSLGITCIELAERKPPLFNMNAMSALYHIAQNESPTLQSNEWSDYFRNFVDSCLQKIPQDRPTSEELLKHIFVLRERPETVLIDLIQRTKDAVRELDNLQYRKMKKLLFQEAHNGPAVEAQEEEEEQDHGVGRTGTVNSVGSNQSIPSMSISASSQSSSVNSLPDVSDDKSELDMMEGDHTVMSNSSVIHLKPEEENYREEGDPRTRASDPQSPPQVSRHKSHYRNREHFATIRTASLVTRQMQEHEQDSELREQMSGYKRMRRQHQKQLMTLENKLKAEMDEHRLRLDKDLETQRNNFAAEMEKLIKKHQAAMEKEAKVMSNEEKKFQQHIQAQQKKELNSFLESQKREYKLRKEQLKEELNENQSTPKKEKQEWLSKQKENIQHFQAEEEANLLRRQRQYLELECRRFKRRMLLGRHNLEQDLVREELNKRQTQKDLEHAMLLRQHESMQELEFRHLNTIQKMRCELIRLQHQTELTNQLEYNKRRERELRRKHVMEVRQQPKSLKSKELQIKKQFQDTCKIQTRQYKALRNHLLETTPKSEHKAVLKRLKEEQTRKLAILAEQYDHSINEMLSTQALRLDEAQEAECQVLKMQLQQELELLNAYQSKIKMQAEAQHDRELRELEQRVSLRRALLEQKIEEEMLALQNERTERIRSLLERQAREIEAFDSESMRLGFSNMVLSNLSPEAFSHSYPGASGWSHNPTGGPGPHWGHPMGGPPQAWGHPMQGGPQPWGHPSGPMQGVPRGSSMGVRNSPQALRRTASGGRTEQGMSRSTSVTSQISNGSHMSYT

Row | Compound | Kd
34 | CNC(=O)c1cc(Oc2ccc(NC(=O)Nc3ccc(Cl)c(C(F)(F)F)c3)c(F)c2)ccn1 [REGORAFENIB] | > 30 µM (inactive)
35 | CN(C)C(=O)c1cc2cnc(Nc3ccc(N4CCNCC4)cn3)nc2n1C1CCCC1 [RIBOCICLIB] | > 30 µM (inactive)
36 | COc1cc(OC)c(/C=C/S(=O)(=O)Cc2ccc(OC)c(NCC(=O)O)c2)c(OC)c1 [RIGOSERTIB] | > 30 µM (inactive)

target: Non-receptor tyrosine-protein kinase TYK2 (Homo sapiens, UniProt P29597)

Row | Compound | Kd
37 | CNC(=O)c1cc(Oc2ccc(NC(=O)Nc3ccc(Cl)c(C(F)(F)F)c3)c(F)c2)ccn1 [REGORAFENIB] | > 30 µM (inactive)
38 | CN(C)C(=O)c1cc2cnc(Nc3ccc(N4CCNCC4)cn3)nc2n1C1CCCC1 [RIBOCICLIB] | > 30 µM (inactive)
39 | COc1cc(OC)c(/C=C/S(=O)(=O)Cc2ccc(OC)c(NCC(=O)O)c2)c(OC)c1 [RIGOSERTIB] | > 30 µM (inactive)
